Measured values: patent publication US20120264755A1, “PYRIDINYL DERIVATIVES AS INHIBITORS OF ENZYME NICOTINAMIDE PHOSPHORIBOSYLTRANSFERASE” (TopoTarget, priority 2009, published 2012)

tested on: A2780 cells; assay: In vitro cell proliferation assay (WST-1 assay); format: cell-based; settings: Homo sapiens, total incubation time 72 h, WST-1 readout
Procedure: A2780 cells were seeded in 96-well plates at 3×10^3 cells/well in 100 μL of culture medium, 8 wells were left empty for media only controls.
After 24 h the compound titrations were performed, in a separate dilution plate, by serially diluting the compounds of general formula (I) in culture medium. A 100 μL of each dilution was added to the plated cells, this was done in triplicate, and controls (e.g. DMSO and blanks) were included. The plates were incubated for 24 h at 37° C. in a CO2 incubator. The compound titrations were repeated in a separate dilution plate after 24 h. The media plus compound from the assay plates were then aspirated. A 100 μL of media was then added to all wells, followed by 100 μL of each compound dilution. The plates were incubated for a further 48 h at 37° C. in a CO2 incubator (total incubation time 72 h). The number of viable cells was then assessed using Cell Proliferation Reagent WST-1. 10 μL of WST-1 reagent added to each well and incubated for one to four hours at 37° C. in CO2 incubator. The absorbance was measured (450 nm/690 nm).
The activity of compounds of general formula (I) in reducing the number of viable cells was calculated as:
% activity=[(S^c−B)/(S^o−B)]×100
S^c denotes signal measured in the presence of test compound, S^o denotes signal detected in the absence of compound, and B denotes background signal, measured in blank wells containing medium only. Analyse data using GraphPad Prism.

Q: Which IC50 does the source give for O=c1c(NCCCCCCCN(CCF)S(=O)(=O)C2CCCCC2)c(Nc2ccncc2)c1=O [Compound 1099, N-(7-(3,4-dioxo-2-(pyridin-4-ylamino)cyclobut-1-enylamino)heptyl)-N-(2-fluoroethyl)cyclohexanesulfonamide] here?
A: Its IC50 is 0.43 nM.

Q: Which IC50 does the source give for N#C/N=C(\NCCCCCCCCN(CCF)S(=O)(=O)C1CCCCC1)Nc1ccncc1 [Compound 1103] here?
A: Its IC50 is 0.005 nM.

Q: For N#C/N=C(\NCCCCCCCCNOCC1CCCCC1)Nc1ccncc1 [Compound 1107, 2-cyano-1-(8-(cyclohexylmethoxyamino)octyl)-3-(pyridin-4-yl)guanidine], which IC50 is on record?
A: Its IC50 is 0.57 nM.

Q: With N#C/N=C(\NCCCCCCNOCC1CCCCC1)Nc1ccncc1 [Compound 1110, 2-cyano-1-(8-(cyclohexylmethoxyamino)hexyl)-3-(pyridin-4-yl)guanidine] as the compound, how does the IC50 read?
A: The IC50 was 0.015 nM.

Q: With CS(=O)(=O)N(CCCCCCN/C(=N\C#N)Nc1ccncc1)OCC1CCCCC1 [Compound 1112, N-(6-(2-cyano-3-(pyridin-4-yl)guanidino)hexyl)-N-(cyclohexylmethoxy)methanesulfonamide] as the compound, how does the IC50 read?
A: Its IC50 is 0.086 nM.

Q: How did the IC50 turn out when CCNC(=O)N(CCCCCCN/C(=N\C#N)Nc1ccncc1)OCC1CCCCC1 [Compound 1114, 1-(6-(2-cyano-3-(pyridin-4-yl)guanidino)hexyl)-1-(cyclohexylmethoxy)-3-ethylurea] was run?
A: The IC50 was 0.057 nM.

Q: How did the IC50 turn out when CC(C)NC(=O)N(CCCCCCN/C(=N\C#N)Nc1ccncc1)OCC1CCCCC1 [Compound 1115, 1-(6-(2-cyano-3-(pyridin-4-yl)guanidino)hexyl)-1-(cyclohexylmethoxy)-3-isopropylurea] was run?
A: Its IC50 is 0.033 nM.

Q: Which IC50 does the source give for CNC(=S)N(CCCCCCN/C(=N\C#N)Nc1ccncc1)OCC1CCCCC1 [Compound 1116, 1-(6-(2-cyano-3-(pyridin-4-yl)guanidino)hexyl)-1-(cyclohexylmethoxy)-3-methylthiourea] here?
A: Its IC50 is 0.056 nM.

Q: With CS(=O)(=O)N(CCCCCCCN/C(=N\C#N)Nc1ccncc1)OCC1CCCCC1 [Compound 1118, N-(7-(2-cyano-3-(pyridin-4-yl)guanidino)heptyl)-N-(cyclohexylmethoxy)methanesulfonamide] as the compound, how does the IC50 read?
A: The IC50 was 0.046 nM.

Q: With CS(=O)(=O)N(CCCCCCCCN/C(=N\C#N)Nc1ccncc1)OCC1CCCCC1 [Compound 1124, N-(8-(2-cyano-3-(pyridin-4-yl)guanidino)octyl)-N-(cyclohexylmethoxy)methanesulfonamide] as the compound, how does the IC50 read?
A: The IC50 was 0.15 nM.

Q: How did the IC50 turn out when CCNC(=O)N(CCCCCCCCN/C(=N\C#N)Nc1ccncc1)OCC1CCCCC1 [Compound 1125, 1-(8-(2-cyano-3-(pyridin-4-yl)guanidino)octyl)-N-(cyclohexylmethoxy)-3-ethylurea] was run?
A: The IC50 was 0.057 nM.

Q: With CCS(=O)(=O)N(CCCCCCN/C(=N\C#N)Nc1ccncc1)OCC1CCCCC1 [Compound 1138, N-(6-(2-cyano-3-(pyridin-4-yl)guanidino)hexyl)-N-(cyclohexylmethoxy)ethane-2-sulfonamide] as the compound, how does the IC50 read?
A: Its IC50 is 0.059 nM.

Q: With CS(=O)(=O)N(CCCCCN/C(=N\C#N)Nc1ccncc1)OCC1CCCCC1 [Compound 1143] as the compound, how does the IC50 read?
A: Its IC50 is 0.081 nM.

Q: CCS(=O)(=O)N(CCCCCN/C(=N\C#N)Nc1ccncc1)OCC1CCCCC1 [Compound 1144] was tested. Which IC50 did it give?
A: The IC50 was 0.037 nM.
